From patent US20230335758A1, “REDOX FLOW BATTERY” (University of Massachusetts, priority 2022, published 2023)

What was measured:
[1] = Cyclic voltammetry of AQS (Randles-Sevcik analysis); assay type: physicochemical
Experimental: Cyclic voltammetry was performed at room temperature in inert atmosphere of dinitrogen using three electrode cell on a VersaSTAT3 workstation. (Princeton Applied Research, USA). Glassy carbon (3 mm, Basi) was employed as working electrode and platinum wire was used as counter electrode. Ag wire was used as pseudo reference electrode with Fc/Fc^+ couple as an internal standard for initial redox potential evaluation. Subsequently, all potentials were referenced to SHE. Diffusion coefficient was calculated using Randles-Sevcik equation as follow.
where, ip is the peak current, n is number electron in redox reaction, F is faraday constant, A is geometrical surface area of electrode, C is the bulk concentration of analyte, ν is scan rate, D is diffusion coefficient and R and T are gas constant and absolute temperature. CV curves were obtained at various scan rate and peak current were plotted against square root of scan rate. Slope (m) of the linear fit was used to determine diffusion coefficient using following equation.

[2] = vanadium(iv) ion chelation; cited from earlier work
[3] = vs. SHE in DMSO; cited from earlier work
[4] = Solubility of AQS ionic derivatives in MeCN, measured by UV-vis (Beer's law); assay type: physicochemical; settings: cooled to room temperature after stirring at 40° C.
Text: Beer's law was used to measure the concentration of the solution using pre-determined molar extinction coefficient using standard calibration curve.

For `O=C1c2ccccc2C(=O)c2cc(S(=O)(=O)O)ccc21` [AQS, Anthraquinone 2-sulfonate], the diffusion coefficient ([1]; CV at various scan rates, Randles-Sevcik plot) was 8.46×10^−6 cm^2 s^−1, the “potential of first electrochemically reversible wave (1^−/2^− couple)” value ([1]; vs SHE) was −0.6 V and the “potential of second electrochemically reversible wave (2^−/3^− couple)” value ([1]; vs SHE) was −1.2 V.
In the case of `C[C@@H](C(=O)[O-])N(O)[C@@H](C)C(=O)[O-].C[C@@H](C(=O)[O-])N(O)[C@@H](C)C(=O)[O-].[V+4]` [Amavadin], the “log equilibrium constant (log Keq), stability constant” value [2] is listed as 23.
For “vanadium(IV/V)bis-hydroxyiminodiacetate [VBH]”, the “E° (standard potential)” value [3] is listed as 0.30 V.
`O=C1c2ccccc2C(=O)c2ccccc21` [AQ, reference compound] gave a Solubility [4] of less than 5 mM.
With `CC[N+](CC)(CC)CC.O=C1c2ccccc2C(=O)c2cc(S(=O)(=O)[O-])ccc21` [N2222AQS] the Solubility [4] was 105 mM.
`CCCC[N+](CCCC)(CCCC)CCCC.O=C1c2ccccc2C(=O)c2cc(S(=O)(=O)[O-])ccc21` [N4444AQS] showed a Solubility [4] of 1260 mM.
`CCC[N+](CCC)(CCC)CCC.O=C1c2ccccc2C(=O)c2cc(S(=O)(=O)[O-])ccc21` [N3333AQS] gave a Solubility [4] of 640 mM.
With `O=C1c2ccccc2C(=O)c2cc(S(=O)(=O)[O-])ccc21.[Na+]` [NaAQS, sodium anthraquinone-2-sulfonate, reference compound] the solubility at 15 min ([4]; MeCN (acetonitrile), organic solvent or mixture, thermodynamic from solid) was less than 1 mM.
